Paper PMC8452096 (bioRxiv, 2021)

Tests used:
SARS-CoV-2 nLUC = test: microbe, parasite or virus in culture; format: cell-based; conditions: Severe acute respiratory syndrome coronavirus 2
SARS-CoV-2 Fluc = test: microbe, parasite or virus in culture; format: cell-based; conditions: Severe acute respiratory syndrome coronavirus 2, NHBE, in Homo sapiens, 24 h
WT SARS-CoV-2 = format: cell-based
[1] = Plasma pharmacokinetics after oral administration in uninfected BALB/c mice; format: in vivo
[2] = molar basis, compared with RDV; cited from earlier work

| SMILES | EC50 (SARS-CoV-2 nLUC) | EC50 (SARS-CoV-2 Fluc) | infectious virus production / viral titers (WT SARS-CoV-2) | maximal plasma concentrations (Cmax) and exposures (AUC0–24h) ([1]; GS-441524 after single oral GS-621763, 5 vs 20 mg/kg) | efficiency at generating lung triphosphate, less than RDV [2] | NHC plasma exposures ([1]; after oral MPV 30 mg/kg or 100 mg/kg BID, BALB/c mice) |
| --- | --- | --- | --- | --- | --- | --- |
| CCC(CC)COC(=O)[C@H](C)N[P@](=O)(OC[C@H]1O[C@@](C#N)(c2ccc3c(N)ncnn23)[C@H](O)[C@@H]1O)Oc1ccccc1 [RDV, remdesivir] | 0.28 µM | 0.0371 µM | significant and dose-dependent reduction in viral titers |  |  |  |
| N#C[C@@]1(c2ccc3c(N)ncnn23)O[C@H](CO)[C@@H](O)[C@H]1O [GS-441524] | 3.3 µM | 2.45 µM | significant and dose-dependent reduction in viral titers | Dose proportional increases | at least 10 fold |  |
| O=c1nc(NO)ccn1[C@@H]1O[C@H](CO)[C@@H](O)[C@H]1O [NHC, β-D-N4-hydroxycytidine] |  |  |  |  |  | dose proportional increases |
